Measured values: ChEMBL document CHEMBL1141629, “Kinase-likeness and kinase-privileged fragments: toward virtual polypharmacology” (J Med Chem, 2008)

These compounds were tested against T1, Serine/threonine-protein kinase PAK 1 (Homo sapiens, UniProt Q13153) (assay: Inhibition of PAK1 at 31 uM).
T1 sequence (Q13153 whole entry): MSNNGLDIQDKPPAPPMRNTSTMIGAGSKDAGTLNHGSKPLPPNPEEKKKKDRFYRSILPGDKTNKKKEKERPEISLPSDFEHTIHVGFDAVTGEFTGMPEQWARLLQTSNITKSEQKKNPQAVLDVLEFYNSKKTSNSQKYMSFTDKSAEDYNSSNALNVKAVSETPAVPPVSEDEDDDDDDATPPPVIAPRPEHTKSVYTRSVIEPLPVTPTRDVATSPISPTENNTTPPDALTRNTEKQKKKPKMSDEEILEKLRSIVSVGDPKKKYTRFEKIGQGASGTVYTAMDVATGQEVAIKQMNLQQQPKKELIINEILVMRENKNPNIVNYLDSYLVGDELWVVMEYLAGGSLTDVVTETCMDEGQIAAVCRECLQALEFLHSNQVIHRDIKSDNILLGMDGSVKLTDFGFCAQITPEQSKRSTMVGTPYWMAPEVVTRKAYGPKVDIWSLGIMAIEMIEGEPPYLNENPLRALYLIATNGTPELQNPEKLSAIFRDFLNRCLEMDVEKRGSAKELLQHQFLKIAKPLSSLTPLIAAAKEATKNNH

inhibition [%] | SMILES
100 | Nc1nc(N)c2nc(-c3ccccc3)c(N)nc2n1
31 | Nc1nc2[nH]cnc2c(=S)[nH]1

Each compound was assayed against Ribosomal protein S6 kinase beta-1 (Homo sapiens) (UniProt P23443) (assay: Inhibition of p70S6K at 33 uM).
Chain of Ribosomal protein S6 kinase beta-1 (Homo sapiens) (P23443 whole entry, looked up): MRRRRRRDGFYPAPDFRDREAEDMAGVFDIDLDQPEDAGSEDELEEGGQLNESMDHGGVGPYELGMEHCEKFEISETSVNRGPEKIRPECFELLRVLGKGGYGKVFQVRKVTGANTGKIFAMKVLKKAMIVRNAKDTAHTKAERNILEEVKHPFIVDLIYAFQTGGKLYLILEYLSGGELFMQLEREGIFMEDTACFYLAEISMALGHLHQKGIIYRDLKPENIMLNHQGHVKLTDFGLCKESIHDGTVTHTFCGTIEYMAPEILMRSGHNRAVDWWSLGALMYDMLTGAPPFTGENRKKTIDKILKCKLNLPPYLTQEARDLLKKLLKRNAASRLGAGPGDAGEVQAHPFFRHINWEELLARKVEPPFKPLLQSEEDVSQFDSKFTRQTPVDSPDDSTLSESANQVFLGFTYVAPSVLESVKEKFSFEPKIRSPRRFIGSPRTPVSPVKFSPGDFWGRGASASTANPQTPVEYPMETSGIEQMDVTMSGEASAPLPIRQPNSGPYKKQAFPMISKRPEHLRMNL

inhibition [%] | SMILES
64 | COc1c2occc2cc2ccc(=O)oc12
95 | Nc1nc(N)c2nc(-c3ccccc3)c(N)nc2n1

Each compound was assayed against T2, Serine/threonine-protein kinase Sgk1 (Homo sapiens) (UniProt O00141) (assay: Inhibition of SGK1 at 33 uM).
T2 sequence (whole entry): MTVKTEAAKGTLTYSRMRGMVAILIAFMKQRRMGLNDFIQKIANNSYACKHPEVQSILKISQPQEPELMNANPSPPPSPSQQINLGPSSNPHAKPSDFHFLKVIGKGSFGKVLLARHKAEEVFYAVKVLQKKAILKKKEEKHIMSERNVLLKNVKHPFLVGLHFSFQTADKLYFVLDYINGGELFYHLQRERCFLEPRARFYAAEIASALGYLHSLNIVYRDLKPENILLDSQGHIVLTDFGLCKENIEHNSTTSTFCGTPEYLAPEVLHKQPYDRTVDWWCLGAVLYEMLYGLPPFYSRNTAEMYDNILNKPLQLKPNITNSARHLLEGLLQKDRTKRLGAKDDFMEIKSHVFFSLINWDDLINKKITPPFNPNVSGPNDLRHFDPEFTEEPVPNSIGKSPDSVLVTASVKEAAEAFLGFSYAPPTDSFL

inhibition [%] | SMILES
94 | Nc1nc(N)c2nc(-c3ccccc3)c(N)nc2n1
70 | O=C(O)c1cc(/N=N/c2ccc(S(=O)(=O)Nc3ccccn3)cc2)ccc1O

What follows are compounds tested against T1, Serine/threonine-protein kinase PAK 1 (assay: Inhibition of PAK1).

IC50 [µM] | SMILES
23 | CC(Sc1ncnc2nc[nH]c12)c1ccccc1Cl (configuration not stated)
31 | c1nc2nc(NC3CCCCC3)ncc2[nH]1
23 | CC1CC(Nc2ncnc3nc[nH]c23)CC(C)(C)C1 (configuration not stated)
38 | CCCCCSc1ncnc2nc[nH]c12
18 | c1nc(N2CCOCC2)c2nc[nH]c2n1
18 | c1nc(NC2CCCC2)c2nc[nH]c2n1
